Laboratory results taken from ChEMBL document CHEMBL3867472, “Discovery of benzofuran propanoic acid GPR120 agonists: From uHTS hit to mechanism-based pharmacodynamic effects” (Bioorg Med Chem Lett, 2016).
pEC50, pIC50: −log10 of the molar value. Calls of active or inactive are those of the source. No cut-off for these calls is given here.

Key:
[1] = tested on: Mus musculus; assay: In vivo agonist activity at GPR120 in wild-type mouse assessed as target engagement at 100 mg/kg, po; type: functional
[2] = molecular target: Voltage-dependent L-type calcium channel subunit alpha-1C (Homo sapiens, UniProt Q13936); assay: Inhibition of Cav1.2 (unknown origin)
[3] = Cmax in mouse at 2 mg/kg, iv or 10 mg/kg, po; type: ADME, organism-based; details: in vivo
[4] = molecular target: Cytochrome P450 2D6 (Homo sapiens, UniProt P10635); assay: Inhibition of CYP2D6 (unknown origin); type: ADME
Chain of Cytochrome P450 2D6 (P10635 whole entry): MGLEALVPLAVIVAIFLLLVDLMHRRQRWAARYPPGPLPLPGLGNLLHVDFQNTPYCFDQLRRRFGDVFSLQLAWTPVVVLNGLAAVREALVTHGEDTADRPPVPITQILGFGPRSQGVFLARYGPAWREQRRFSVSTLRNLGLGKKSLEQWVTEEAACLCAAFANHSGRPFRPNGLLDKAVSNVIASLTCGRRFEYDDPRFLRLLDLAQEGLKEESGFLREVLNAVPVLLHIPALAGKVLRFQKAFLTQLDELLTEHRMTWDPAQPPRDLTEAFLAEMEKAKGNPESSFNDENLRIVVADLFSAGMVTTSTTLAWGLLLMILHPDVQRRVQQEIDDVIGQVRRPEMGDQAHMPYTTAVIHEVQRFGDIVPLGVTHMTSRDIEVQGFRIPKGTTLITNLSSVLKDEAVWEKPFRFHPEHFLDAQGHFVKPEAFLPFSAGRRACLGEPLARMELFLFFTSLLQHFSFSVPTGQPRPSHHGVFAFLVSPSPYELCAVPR

[5] = molecular target: Cytochrome P450 2C9 (Homo sapiens, UniProt P11712); assay: Inhibition of CYP2C9 (unknown origin); type: ADME
Chain of Cytochrome P450 2C9 (P11712 whole entry): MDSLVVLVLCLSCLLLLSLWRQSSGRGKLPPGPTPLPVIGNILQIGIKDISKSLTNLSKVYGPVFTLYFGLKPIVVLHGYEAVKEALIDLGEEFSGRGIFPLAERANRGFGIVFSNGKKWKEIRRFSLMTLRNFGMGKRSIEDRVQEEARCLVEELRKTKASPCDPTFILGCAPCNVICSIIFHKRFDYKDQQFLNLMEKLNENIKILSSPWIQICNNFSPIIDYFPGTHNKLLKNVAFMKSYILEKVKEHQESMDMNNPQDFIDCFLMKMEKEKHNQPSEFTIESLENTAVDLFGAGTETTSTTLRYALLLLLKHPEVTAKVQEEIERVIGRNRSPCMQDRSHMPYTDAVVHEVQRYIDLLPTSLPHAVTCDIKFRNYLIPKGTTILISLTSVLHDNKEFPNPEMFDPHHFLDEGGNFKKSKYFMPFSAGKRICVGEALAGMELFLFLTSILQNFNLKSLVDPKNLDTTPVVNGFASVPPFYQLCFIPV

[6] = Oral bioavailability in mouse at 10 mg/kg; type: ADME, organism-based; details: in vivo
[7] = tested on: Mus musculus; assay: In vivo agonist activity at GPR120 in wild-type mouse assessed as target engagement at 30 mg/kg, po; type: functional
[8] = Drug uptake in GPR120 knockout mouse blood at 100 mg/kg, po; type: ADME, organism-based; details: in vivo, read-out: Drug uptake
[9] = molecular target: T1, Free fatty acid receptor 4 (Mus musculus) (UniProt Q7TMA4); assay: Agonist activity at mouse GPR120 expressed in CHOK1 cells measured after 60 mins by IP1-HTRF assay relative to basal level; type: functional, cell-based; parameters: concentration or dose not given beside the values; details: CHO-K1
T1 sequence (whole entry): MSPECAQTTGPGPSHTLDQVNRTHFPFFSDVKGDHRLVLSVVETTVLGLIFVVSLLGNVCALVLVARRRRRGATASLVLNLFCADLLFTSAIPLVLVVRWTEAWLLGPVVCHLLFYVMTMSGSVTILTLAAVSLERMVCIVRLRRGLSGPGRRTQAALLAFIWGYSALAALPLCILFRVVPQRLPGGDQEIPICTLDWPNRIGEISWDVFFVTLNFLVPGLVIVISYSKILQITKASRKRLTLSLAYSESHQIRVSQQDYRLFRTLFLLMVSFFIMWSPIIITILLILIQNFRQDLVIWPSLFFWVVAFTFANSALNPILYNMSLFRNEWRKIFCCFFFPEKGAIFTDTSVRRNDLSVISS

[10] = molecular target: Sodium channel protein type 5 subunit alpha (Homo sapiens, UniProt Q14524); assay: Inhibition of Nav1.5 (unknown origin)
Chain of Sodium channel protein type 5 subunit alpha (Q14524 whole entry): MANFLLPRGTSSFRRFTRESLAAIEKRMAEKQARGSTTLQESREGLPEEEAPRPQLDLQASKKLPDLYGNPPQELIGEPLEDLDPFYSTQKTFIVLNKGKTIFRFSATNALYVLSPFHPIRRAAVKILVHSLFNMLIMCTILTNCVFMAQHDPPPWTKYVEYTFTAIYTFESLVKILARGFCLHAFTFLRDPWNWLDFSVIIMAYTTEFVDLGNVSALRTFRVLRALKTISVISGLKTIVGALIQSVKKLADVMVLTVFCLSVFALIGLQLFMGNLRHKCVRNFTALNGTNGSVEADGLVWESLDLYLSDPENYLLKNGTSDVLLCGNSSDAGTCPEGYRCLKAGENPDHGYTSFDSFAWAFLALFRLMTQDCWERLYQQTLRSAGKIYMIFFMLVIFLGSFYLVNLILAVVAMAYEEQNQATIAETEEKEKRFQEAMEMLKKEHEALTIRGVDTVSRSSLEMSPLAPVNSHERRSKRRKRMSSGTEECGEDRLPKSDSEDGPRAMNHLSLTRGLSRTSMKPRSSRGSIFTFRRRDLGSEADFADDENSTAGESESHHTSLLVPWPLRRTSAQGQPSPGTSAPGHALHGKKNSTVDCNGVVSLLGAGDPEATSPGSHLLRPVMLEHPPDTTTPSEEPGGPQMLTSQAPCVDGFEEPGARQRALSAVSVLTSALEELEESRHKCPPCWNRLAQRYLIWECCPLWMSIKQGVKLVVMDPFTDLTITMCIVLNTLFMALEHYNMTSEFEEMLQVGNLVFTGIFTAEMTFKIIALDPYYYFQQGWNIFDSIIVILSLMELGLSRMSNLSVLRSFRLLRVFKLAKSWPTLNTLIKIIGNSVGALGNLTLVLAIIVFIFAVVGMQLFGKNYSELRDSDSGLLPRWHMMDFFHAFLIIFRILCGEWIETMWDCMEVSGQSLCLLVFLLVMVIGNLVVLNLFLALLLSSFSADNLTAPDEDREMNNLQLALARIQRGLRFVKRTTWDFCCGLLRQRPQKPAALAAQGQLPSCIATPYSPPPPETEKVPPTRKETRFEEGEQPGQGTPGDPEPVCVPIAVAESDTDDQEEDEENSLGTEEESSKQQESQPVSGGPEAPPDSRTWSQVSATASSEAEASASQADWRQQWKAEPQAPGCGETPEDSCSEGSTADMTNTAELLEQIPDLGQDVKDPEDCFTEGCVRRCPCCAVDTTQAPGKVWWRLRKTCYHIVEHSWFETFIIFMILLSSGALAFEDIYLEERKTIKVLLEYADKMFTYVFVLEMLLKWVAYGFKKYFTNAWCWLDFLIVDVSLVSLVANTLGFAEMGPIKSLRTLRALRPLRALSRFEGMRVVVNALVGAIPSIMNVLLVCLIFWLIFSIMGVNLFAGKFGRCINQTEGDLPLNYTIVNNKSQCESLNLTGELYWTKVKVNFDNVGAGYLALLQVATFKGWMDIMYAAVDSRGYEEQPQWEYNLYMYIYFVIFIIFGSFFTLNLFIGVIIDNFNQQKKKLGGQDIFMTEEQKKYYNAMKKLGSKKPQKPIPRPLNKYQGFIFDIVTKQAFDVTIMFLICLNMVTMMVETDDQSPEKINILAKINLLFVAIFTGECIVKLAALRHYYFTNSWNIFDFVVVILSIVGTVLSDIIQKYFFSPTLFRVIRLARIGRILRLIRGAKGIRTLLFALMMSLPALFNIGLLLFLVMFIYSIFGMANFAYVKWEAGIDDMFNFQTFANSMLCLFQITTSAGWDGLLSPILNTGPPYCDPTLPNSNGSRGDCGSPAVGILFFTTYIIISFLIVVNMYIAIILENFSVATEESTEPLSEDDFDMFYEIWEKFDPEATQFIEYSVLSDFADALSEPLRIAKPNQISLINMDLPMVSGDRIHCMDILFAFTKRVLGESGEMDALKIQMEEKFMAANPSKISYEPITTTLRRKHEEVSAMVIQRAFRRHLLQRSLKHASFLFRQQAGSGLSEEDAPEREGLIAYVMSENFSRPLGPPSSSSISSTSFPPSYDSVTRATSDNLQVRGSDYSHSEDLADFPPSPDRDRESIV

[11] = Half life in mouse at 2 mg/kg, iv or 10 mg/kg, po; type: ADME, organism-based; details: in vivo
[12] = Volume of distribution in mouse at 2 mg/kg, iv or 10 mg/kg, po; type: ADME, organism-based; details: in vivo
[13] = Protein binding in mouse plasma; type: ADME, cell-free; details: read-out: PPB (converted)
[14] = Clearance in mouse at 2 mg/kg, iv or 10 mg/kg, po; type: ADME, organism-based; details: in vivo
[15] = molecular target: T2, Free fatty acid receptor 4 (Homo sapiens) (UniProt Q5NUL3); assay: Agonist activity at human GPR120 expressed in CHOK1 cells measured after 60 mins by IP1-HTRF assay relative to basal level; type: functional, cell-based; parameters: concentration or dose not given beside the values; details: CHO-K1
T2 sequence (whole entry): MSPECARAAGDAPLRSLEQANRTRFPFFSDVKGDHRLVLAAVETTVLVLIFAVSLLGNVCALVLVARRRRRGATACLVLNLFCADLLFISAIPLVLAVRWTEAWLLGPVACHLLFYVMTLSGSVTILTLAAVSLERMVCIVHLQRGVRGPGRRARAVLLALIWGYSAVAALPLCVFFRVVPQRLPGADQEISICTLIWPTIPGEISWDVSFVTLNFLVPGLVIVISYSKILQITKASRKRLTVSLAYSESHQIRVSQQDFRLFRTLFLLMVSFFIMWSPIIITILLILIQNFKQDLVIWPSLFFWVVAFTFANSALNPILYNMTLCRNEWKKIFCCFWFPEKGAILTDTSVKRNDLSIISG

[16] = molecular target: T3, Free fatty acid receptor 4 (Mus musculus, UniProt Q7TMA4); assay: Agonist activity at mouse GPR120 expressed in CHOK1 cells measured after 60 mins by IP1-HTRF assay; type: functional, cell-based, CHO-K1
T3 sequence (Q7TMA4 whole entry): T1 sequence (whole entry)

[17] = Antidiabetic activity in wild-type mouse assessed as reduction in glucose excursion at 30 and 100 mg/kg, po by oral glucose tolerance test; type: functional, organism-based
[18] = molecular target: T4, Free fatty acid receptor 4 (Homo sapiens, UniProt Q5NUL3); assay: Agonist activity at human GPR120 expressed in CHOK1 cells measured after 60 mins by IP1-HTRF assay; type: functional, cell-based, CHO-K1
T4 sequence (Q5NUL3 whole entry): T2 sequence (whole entry)

[19] = molecular target: Cytochrome P450 3A4 (Homo sapiens, UniProt P08684); assay: Inhibition of CYP3A4 (unknown origin); type: ADME
Chain of Cytochrome P450 3A4 (P08684 whole entry): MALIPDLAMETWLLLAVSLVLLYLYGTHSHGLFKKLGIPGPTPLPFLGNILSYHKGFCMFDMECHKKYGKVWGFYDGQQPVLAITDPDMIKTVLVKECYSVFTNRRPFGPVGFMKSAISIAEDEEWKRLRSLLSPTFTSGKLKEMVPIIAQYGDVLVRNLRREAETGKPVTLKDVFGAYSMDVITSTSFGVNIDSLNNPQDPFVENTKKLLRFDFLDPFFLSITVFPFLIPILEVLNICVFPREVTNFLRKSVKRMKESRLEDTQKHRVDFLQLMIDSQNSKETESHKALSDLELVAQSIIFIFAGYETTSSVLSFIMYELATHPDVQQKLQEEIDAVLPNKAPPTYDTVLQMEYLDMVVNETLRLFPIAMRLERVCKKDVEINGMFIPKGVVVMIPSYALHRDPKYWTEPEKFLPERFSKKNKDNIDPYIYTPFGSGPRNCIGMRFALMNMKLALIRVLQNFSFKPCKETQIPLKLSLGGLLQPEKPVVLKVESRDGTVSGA

[20] = Drug uptake in wild-type mouse blood at 100 mg/kg, po; type: ADME, organism-based; details: in vivo, read-out: Drug uptake
[21] = molecular target: T5, Free fatty acid receptor 1 (Homo sapiens, UniProt O14842); assay: Agonist activity at human GPR40 measured after 60 mins by IP1-HTRF assay relative to basal level; type: functional; parameters: concentration or dose not given beside the values
T5 sequence (O14842 whole entry): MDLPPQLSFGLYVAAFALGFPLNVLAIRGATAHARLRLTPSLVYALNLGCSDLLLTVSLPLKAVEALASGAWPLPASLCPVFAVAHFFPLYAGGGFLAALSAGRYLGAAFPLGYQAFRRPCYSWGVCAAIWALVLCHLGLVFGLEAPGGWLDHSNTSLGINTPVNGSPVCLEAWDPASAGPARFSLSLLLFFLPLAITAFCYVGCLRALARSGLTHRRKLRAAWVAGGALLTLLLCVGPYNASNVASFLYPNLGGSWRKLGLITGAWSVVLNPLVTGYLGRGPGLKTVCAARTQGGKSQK

[22] = molecular target: T5, Free fatty acid receptor 1; assay: Agonist activity at human GPR40 measured after 60 mins by IP1-HTRF assay; type: functional
[23] = Drug uptake in wild-type mouse blood at 30 mg/kg, po; type: ADME, organism-based; details: in vivo, read-out: Drug uptake
[24] = tested on: Mus musculus; assay: Reduction of glucose excursion in GPR120 knockout mouse at 30 and 100 mg/kg, po by oral glucose tolerance test; type: functional, organism-based
[25] = Drug uptake in GPR120 knockout mouse blood at 30 mg/kg, po; type: ADME, organism-based; details: in vivo, read-out: Drug uptake
[26] = molecular target: T2, Free fatty acid receptor 4 (Homo sapiens); assay: Agonist activity at GPR120 (unknown origin) at 5 uM by PathHunter cell based assay
[27] = molecular target: T2, Free fatty acid receptor 4 (Homo sapiens); assay: Agonist activity at human GPR120 expressed in CHO-NFAT cells assessed as increase in calcium efflux at 5 uM by Fluo-4 dye-based FLIPR assay; type: functional, cell-based
[28] = tested on: CHO-K1; assay: Effect on calcium efflux in CHOK1 cells at 5 uM by Fluo-4 dye-based FLIPR assay; type: functional, Cricetulus griseus
[29] = molecular target: Voltage-gated inwardly rectifying potassium channel KCNH2 (Homo sapiens, UniProt Q12809)
Chain of Voltage-gated inwardly rectifying potassium channel KCNH2 (Q12809 whole entry): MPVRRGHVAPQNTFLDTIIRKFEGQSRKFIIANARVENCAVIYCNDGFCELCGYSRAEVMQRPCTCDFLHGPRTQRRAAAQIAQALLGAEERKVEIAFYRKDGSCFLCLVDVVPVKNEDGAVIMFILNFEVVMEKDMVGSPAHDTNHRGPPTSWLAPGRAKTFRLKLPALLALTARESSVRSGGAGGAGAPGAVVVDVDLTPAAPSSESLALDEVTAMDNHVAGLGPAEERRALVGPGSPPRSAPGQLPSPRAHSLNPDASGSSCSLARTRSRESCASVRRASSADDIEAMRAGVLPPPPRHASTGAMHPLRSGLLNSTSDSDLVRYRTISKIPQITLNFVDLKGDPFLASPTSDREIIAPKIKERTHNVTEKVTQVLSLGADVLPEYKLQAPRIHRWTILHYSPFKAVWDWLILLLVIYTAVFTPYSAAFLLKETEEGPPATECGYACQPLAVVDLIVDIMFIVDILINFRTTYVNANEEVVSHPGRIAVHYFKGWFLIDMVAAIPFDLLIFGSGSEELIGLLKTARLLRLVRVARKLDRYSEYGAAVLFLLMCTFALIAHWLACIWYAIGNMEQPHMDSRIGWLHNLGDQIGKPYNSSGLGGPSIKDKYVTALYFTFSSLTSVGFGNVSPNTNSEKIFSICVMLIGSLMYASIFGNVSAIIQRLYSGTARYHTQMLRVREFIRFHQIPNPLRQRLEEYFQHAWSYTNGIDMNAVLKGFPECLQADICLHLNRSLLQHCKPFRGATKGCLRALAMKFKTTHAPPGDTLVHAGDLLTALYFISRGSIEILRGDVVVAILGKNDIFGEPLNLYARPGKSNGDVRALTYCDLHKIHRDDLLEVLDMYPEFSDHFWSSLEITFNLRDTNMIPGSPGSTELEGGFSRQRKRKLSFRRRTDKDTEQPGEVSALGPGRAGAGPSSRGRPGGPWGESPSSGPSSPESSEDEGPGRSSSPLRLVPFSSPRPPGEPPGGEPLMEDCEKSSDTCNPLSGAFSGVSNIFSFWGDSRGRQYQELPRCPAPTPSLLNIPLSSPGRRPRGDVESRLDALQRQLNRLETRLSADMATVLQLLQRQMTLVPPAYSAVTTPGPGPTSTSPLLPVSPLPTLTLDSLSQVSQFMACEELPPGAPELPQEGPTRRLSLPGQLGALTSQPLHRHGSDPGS

SMILES | pIC50 [2] | Cmax [3] [µM] | pIC50 [4] | pIC50 [5] | bioavailability [6] [%] | Activity [9] [%] | pIC50 [10] | half-life [11] [h] | Vd [12] [L/kg] | fraction unbound [13] | clearance [14] [mL/min/kg] | Activity [15] [%] | pEC50 [16] | pEC50 [18] | pIC50 [19] | Activity [21] [%] | pEC50 [22] | also measured
O=C(O)CCc1cc2cc(-c3cc(OC(F)(F)F)ccc3F)ccc2o1 | 4.82 | 8.17 | < 4.30 | 4.42 | 100 | 75 | < 4.52 | 1.6 | 3 | 0.002 | 20 | 73 | 7.37 | 7.20 | < 4.30 | 38 | 5.74 | Activity [1]: 68%; Activity [7]: 40%; concentration [8]: 23 µM; Activity [17]: Active; concentration [20]: 45.1 µM; concentration [23]: 33.4 µM; Activity [24]: Active; concentration [25]: 24.8 µM
O=C(O)CCCOc1ccc(-c2noc3ccccc23)c(Cl)c1Cl | – | 4.64 | – | – | 97 | 29 | – | 3.3 | 5.6 | 0.042 | 24 | 24 | 6.31 | 6.32 | – | – | < 5.00 | Activity [26]: Active; Activity [27]: > 11%; Activity [28]: <10%
O=C(O)CCCOc1ccc(-c2cc(OC(F)(F)F)ccc2Cl)cc1 | < 4.52 | 2.38 | < 4.30 | 4.48 | 45 | 64 | 4.76 | 1.3 | 1.86 | 0.049 | 17 | 71 | 8.05 | 7.24 | < 4.30 | 40 | 5.98 | pIC50 [29]: < 4.22
